From patent US20110046220A1, “PARABEN COMPOUNDS” (CENTRE NATIONAL DE LA RECHERCHE SCIENTIFIQUE, priority 2007, published 2011) come the findings set out here.

Values after ≈ are worked out from the molar mass of the structure shown. Values joined by “and” are separate entries in the source; they are usually repeats but may differ in a detail not shown here. Equal values may be shown once. Read-outs that look alike come from different tables or passages of the source.

Holding throughout (assay type): cell-based
The subject of assay [1] is Staphylococcus aureus strain ATCC 6538. The experiment in a line: MIC determination by twofold dilution in microplates against Staphylococcus aureus. To be noted: for MIC: Staphylococcus aureus. Here is the method: Antimicrobial activity was tested by inhibition of growth of Gram positive bacteria Staphylococcus aureus strain ATCC 6538. All extracts and bacterial isolates from the sponge were screened for this antibacterial activity. Extracts and bacterial strains were also tested against gram negative gamma-proteobacteria (including Vibrios) and alpha-proteobacteria (Rhodobacterales), against Gram positive Bacillales (including Bacillus sp.) and against the yeast Candida albicans.
MICs of each of the compounds 1-9 according to the invention and of commercial methyl- and propyl parabens of the prior art were determined by a twofold dilution method from an initial 100 μg/mL concentration. […] Microplates were incubated for 24 hours at 30° C. with shaking (500 rpm) and optical density at 600 nm was read to estimate bacterial growth. The methyl- and propyl parabens of the prior art were obtained from the company Interchimie in Bobigny, France. […]
The results are reported in the following table 3 in which the MIC is reported in μg/ml and expressed, as in table 1, as the interval a-b, where a is the highest concentration tested at which microorganism are growing and b the lowest concentration that causes 100% growth inhibition.

Assay [2] has as its system Staphylococcus aureus (ATCC 6538). Put plainly: MBC determination by subculturing wells with no visible growth onto agar plates. To be noted: for MBC/MIC ratio / bactericidal or bacteriostatic effect (from MBC/MIC ratio): S. aureus; for MBC: Staphylococcus aureus, ATCC6538. The protocol: MBCs were determined to estimate bacterial survival in wells with no visible growth after 24 h by subculturing onto agar plates to count the number of colony-forming-units (CFU/mL).
In order to determine whether the growth inhibition observed against S. aureus was relevant either of a bactericidal or a bacteriostatic effect, the ratio MBC/MIC was calculated.

Assay [3] has as its system Microbulbifer sp. strain L4-N2. The experiment in a line: Antibiotic resistance/sensitivity of bacteria of the strain L4-N2. To be noted: kanamycine 30UI; ceftazidime 30 μg. The protocol: Bacteria of the strain L4-N2 are gram negative, aerobic, rod-shaped, and approximately 1 μm wide by 5 to 7 μm long. They form smooth, convex and mucoid colonies, and produce a non-diffusible brown pigment. They use glucose and display beta-galactosidase, catalase, and gelatinase activities. They are resistant to ampicillin, penicillin and oxacillin and sensitive to kanamycine (30UI) and ceftazidime (30 μg).

Where [4] appears, read: ATCC6538, S. aureus ATCC 6538, 24 hours at 30° C., interval a-b (a highest concentration with growth, b lowest with 100% growth inhibition), triplicate, read-out: MIC.
[5] abbreviates: ATCC6538, S. aureus ATCC 6538, 24 hours at 30° C., interval a-b, triplicate, read-out: MIC.
[6] abbreviates: S. aureus ATCC 6538, lowest concentration yielding colony counts <0.1% of the initial inoculum, read-out: MBC.

As a reminder, the MIC is the least concentration at which growth counts as inhibited. The term MBC denotes the lowest tested concentration that kills the bacteria rather than only halting them. With `CCCCCCCCCCOC(=O)c1ccc(O)cc1` [Compound 4, 4-Hydroxy-benzoic acid decyl ester], the minimal inhibitory concentration (MIC) in assay [1] (setting [4]) is 2.8 to 5.6 µM. Moreover, the MIC in assay [1] (setting [5]) lay within 0.78 to 1.56 µg/mL. Besides, in assay [2], the MBC/MIC ratio is recorded as 16; the “bactericidal or bacteriostatic effect (from MBC/MIC ratio)” value is “bacteriostatic (if MBC/MIC is between 8 and 16 and above 16, the compound is bacteriostatic)”. Further, the MBC in assay [2] (setting [6]) was in the range of 12.5 to 25 µg/mL (≈ 44.9 to 89.8 µM).
On to `CCCOC(=O)c1ccc(O)cc1` [Propyl paraben, reference compound], for which the values for the MIC in assay [1] (setting [4]) and in assay [1] (setting [5]) were 278 to 556 µM and 50 to 100 µg/mL, respectively. Further, in assay [2] (setting [6]), the MBC was over 100 µg/mL.
For `CCCCCCCCCCCCOC(=O)c1ccc(O)cc1` [Compound 8, 4-Hydroxy-benzoic acid dodecyl ester], the MIC in assay [1] (setting [4]) was in the range of 81.6 to 163 µM; in assay [1] (setting [5]), 25 to 50 µg/mL. Further, in assay [2], the MBC/MIC ratio is over 16. In addition, the MBC in assay [2] (setting [6]) was over 100 µg/mL.
With `CC(C)CCCCCC(O)CCOC(=O)c1ccc(O)cc1` (stereo not shown) [Compound 7], the MIC in assay [1] (setting [4]) fell in the range of 40.5 to 81.1 µM. For the same molecule, the MIC in assay [1] (setting [5]) lay within 12.5 to 25 µg/mL. Besides, in assay [2], the MBC/MIC ratio worked out at 2 and the “bactericidal or bacteriostatic effect (from MBC/MIC ratio)” value is “bactericidal (If MBC/MIC is less than 4, the compound is bactericidal)”. Moreover, in assay [2] (setting [6]), the MBC was in the range of 25 to 50 µg/mL (≈ 81.1 to 162 µM).
On to `Cc1onc(-c2ccccc2)c1C(=O)N[C@@H]1C(=O)N2[C@@H]1SC(C)(C)[C@@H]2C(=O)O` [oxacillin], for which the “resistance or sensitivity of strain L4-N2 bacteria to the antibiotic” value (“resistance or sensitivity” below) in assay [3] is recorded as “resistant”.
The same measure, in the same setting: to penicillin belongs “resistant”.
For the molecule `COC(=O)c1ccc(O)cc1` [Methyl paraben, reference compound], the MIC is 329 to 658 µM in assay [1] (setting [4]) and 50 to 100 µg/mL in assay [1] (setting [5]). In addition, the MBC in assay [2] (setting [6]) was over 100 µg/mL.
With `CC(C)(O/N=C(\C(=O)N[C@@H]1C(=O)N2C(C(=O)[O-])=C(C[n+]3ccccc3)CS[C@H]12)c1csc(N)n1)C(=O)O` [ceftazidime], the “resistance or sensitivity” value in assay [3] was “sensitive”.
For `CCCCCC/C=C/CCCCOC(=O)c1ccc(O)cc1` [Compound 9, 4-Hydroxy-benzoic acid dodec-5-enyl ester], the “factor of enhancement of antimicrobial activity by unsaturation of the alkyl chain (compound 9 vs compound 8)” value in assay [1] (S. aureus, compared MIC values) worked out at 4. In addition, the MIC in assay [1] (setting [4]) lay in the range of 20.5 to 41.1 µM; in assay [1] (setting [5]) it was 6.25 to 12.5 µg/mL. Further, the MBC/MIC ratio in assay [2] was 8. In addition, the “bactericidal or bacteriostatic effect (from MBC/MIC ratio)” value in assay [2] was “bacteriostatic (if MBC/MIC is between 8 and 16 and above 16, the compound is bacteriostatic)”. Besides, the MBC in assay [2] (setting [6]) is 50 to 100 µg/mL (≈ 164 to 328 µM).
Take `CCCCCCCCOC(=O)c1ccc(O)cc1` [Compound 3, 4-Hydroxy-benzoic acid octyl ester]: the MIC in assay [1] (setting [4]) lay within 100 to 200 µM; in assay [1] (setting [5]), 25 to 50 µg/mL. In addition, the MBC/MIC ratio in assay [2] was 2. The “bactericidal or bacteriostatic effect (from MBC/MIC ratio)” value in assay [2] is listed as “bactericidal (If MBC/MIC is less than 4, the compound is bactericidal)”. Besides, the MBC in assay [2] (setting [6]) was in the range of 50 to 100 µg/mL (≈ 200 to 399 µM).
In the case of `NC[C@H]1O[C@H](O[C@H]2[C@H](O)[C@@H](O[C@H]3O[C@H](CO)[C@@H](O)[C@H](N)[C@H]3O)[C@H](N)C[C@@H]2N)[C@H](O)[C@@H](O)[C@@H]1O` [kanamycine], in assay [3], the “resistance or sensitivity” value was “sensitive”.
Consider `CCCCCCCC(O)CCOC(=O)c1ccc(O)cc1` (stereo not shown) [Compound 5, 4-Hydroxy-benzoic acid 3-hydroxy-decyl ester], for which the MIC lay within 85 to 170 µM in assay [1] (setting [4]) and 25 to 50 µg/mL in assay [1] (setting [5]). The MBC/MIC ratio in assay [2] was over 16. The MBC in assay [2] (setting [6]) is over 100 µg/mL.
For the molecule `CC(C)CCCCCCCCOC(=O)c1ccc(O)cc1` [Compound 6], the MIC in assay [1] (setting [4]) is 42.8 to 85.6 µM. In addition, the MIC in assay [1] (setting [5]) fell in the range of 12.5 to 25 µg/mL. Moreover, in assay [2], the MBC/MIC ratio is reported as 2 and the “bactericidal or bacteriostatic effect (from MBC/MIC ratio)” value was “bactericidal (If MBC/MIC is less than 4, the compound is bactericidal)”. For the same molecule, in assay [2] (setting [6]), the MBC lay within 25 to 50 µg/mL (≈ 85.5 to 171 µM).
On to `CC1(C)S[C@@H]2[C@H](NC(=O)[C@H](N)c3ccccc3)C(=O)N2[C@H]1C(=O)O` [ampicillin], for which the “resistance or sensitivity” value in assay [3] is reported as “resistant”.
For `CCCCOC(=O)c1ccc(O)cc1` [Compound 2, 4-Hydroxy-benzoic acid butyl ester], the MIC in assay [1] (ATCC6538, 24 h) was 129 µM to 258 µM and 25 µg/mL to 50 µg/mL. Moreover, in assay [2], the MBC/MIC ratio was over 16 and the MBC was over 100 µg/mL.
As for `CCOC(=O)c1ccc(O)cc1` [Compound 1, 4-Hydroxy-benzoic acid ethyl ester], the figures for the MIC in assay [1] (setting [4]) and in assay [1] (setting [5]) were over 602 µM and over 100 µg/mL, respectively. In assay [2], the MBC/MIC ratio is recorded as over 16. In assay [2] (setting [6]), the MBC was over 100 µg/mL.
